Entries after “also recorded” stand apart in the source; their conditions may differ. Where two headings read alike, the source gives them in different places.
Experiments:
CYP3A4 transcription = assay: CYP induction (transcription); assay type: in vitro ADME; details: up to 3 μM, 24 hours
[1] = Electrocardiogram evaluations in 28-day repeat-dose toxicity study; assay type: in vivo, dogs; details: any dose level
Source text: (§1) Safety pharmacology studies described more fully below included a functional observational battery (FOB) testing in a 28-day repeat-dose toxicity study in rats, electrocardiogram (ECG) evaluations in a 28-day repeat-dose toxicity study in dogs, and a single-dose respiratory safety pharmacology study in rats.

[2] = test system: OVCAR-3 cell loaded Hollow Fibers; assay: Mouse hollow fiber assay (CellTiter Glo); assay type: in vivo, mice; details: 75, 100, 150 mg/kg twice daily, Day 16
Description: (§2) The mouse hollow fiber assay was conducted using three tumor cell lines, OVCAR-3 (ovarian), MKN-1 (gastric), and HCC-1569 (breast), 1e7 OVCAR-3, 5e6 MKN-1, and 1e7 HCC-1569 cells were loaded into Hollow Fibers, placed in cell culture dishes containing RPMI-1640 with 20% FCS and 1% penicillin/streptomycin, and were equilibrated in an incubator at 37 C, 5% CO2 overnight. On Day 0, three fibers were implanted in two different compartments: subcutaneous and intraperitoneal of twenty-four female NMRI nude mice ages 4-5 weeks. […] Female NMRI nude mice were implanted both subcutaneously and intraperitoneally with HCC-1569, MKN1, and OVCAR3 tumor cell-loaded Hollow Fibers on Day 0. The number of animals alive on Day 0 (implantation) and on Day 16 (necropsy) in each group is shown in parentheses in the legend.
OVCAR-3 cell loaded Hollow Fibers were implanted both subcutaneously and intraperitoneally into female NMRI nude mice on Day 0. Hollow Fibers were collected during necropsy on Day 16 and analyzed using a CellTiter Glo® assay.

human OATP1B3 = biological target: T1, human OATP1B3 (Homo sapiens, UniProt Q9NPD5); assay: SLC transporter inhibition in HEK293 cells; assay type: in vitro ADME
T1 construct: expressed in transfected cells; host or cells: HEK293
T1 sequence (Q9NPD5 1-702): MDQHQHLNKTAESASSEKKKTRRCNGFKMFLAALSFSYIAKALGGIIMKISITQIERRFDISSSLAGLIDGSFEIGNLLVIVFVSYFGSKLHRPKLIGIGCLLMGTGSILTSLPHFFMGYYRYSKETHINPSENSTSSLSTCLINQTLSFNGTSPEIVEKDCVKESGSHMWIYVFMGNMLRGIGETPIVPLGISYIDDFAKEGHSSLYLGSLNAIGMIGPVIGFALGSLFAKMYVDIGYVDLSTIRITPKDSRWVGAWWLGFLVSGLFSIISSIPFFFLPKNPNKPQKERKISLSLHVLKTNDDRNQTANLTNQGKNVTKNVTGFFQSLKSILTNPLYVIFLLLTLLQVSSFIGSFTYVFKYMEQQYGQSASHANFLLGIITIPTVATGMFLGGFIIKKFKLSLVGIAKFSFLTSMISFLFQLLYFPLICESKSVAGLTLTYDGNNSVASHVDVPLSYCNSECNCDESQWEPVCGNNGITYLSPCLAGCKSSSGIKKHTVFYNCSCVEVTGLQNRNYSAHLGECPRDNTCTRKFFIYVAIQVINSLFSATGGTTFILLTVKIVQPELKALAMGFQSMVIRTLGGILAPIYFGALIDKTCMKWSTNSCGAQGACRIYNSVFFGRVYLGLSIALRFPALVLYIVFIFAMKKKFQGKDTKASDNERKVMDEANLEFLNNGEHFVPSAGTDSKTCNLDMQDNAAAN

[3] = test system: MKN-1 cell loaded Hollow Fibers; assay: Mouse hollow fiber assay (CellTiter Glo); assay type: in vivo, mice; details: 75, 100, 150 mg/kg twice daily, Day 16
Description: as §2
MKN-1 cell loaded Hollow Fibers were implanted both subcutaneously and intraperitoneally into female NMRI nude mice on Day 0. Hollow Fibers were collected during necropsy on Day 16 and analyzed using a CellTiter Glo® assay.

[4] = biological target: bile salt export pump (BSEP) (Homo sapiens, UniProt O95342); assay: Transporter inhibition; assay type: in vitro ADME
Sequence of bile salt export pump (BSEP) (O95342 whole entry): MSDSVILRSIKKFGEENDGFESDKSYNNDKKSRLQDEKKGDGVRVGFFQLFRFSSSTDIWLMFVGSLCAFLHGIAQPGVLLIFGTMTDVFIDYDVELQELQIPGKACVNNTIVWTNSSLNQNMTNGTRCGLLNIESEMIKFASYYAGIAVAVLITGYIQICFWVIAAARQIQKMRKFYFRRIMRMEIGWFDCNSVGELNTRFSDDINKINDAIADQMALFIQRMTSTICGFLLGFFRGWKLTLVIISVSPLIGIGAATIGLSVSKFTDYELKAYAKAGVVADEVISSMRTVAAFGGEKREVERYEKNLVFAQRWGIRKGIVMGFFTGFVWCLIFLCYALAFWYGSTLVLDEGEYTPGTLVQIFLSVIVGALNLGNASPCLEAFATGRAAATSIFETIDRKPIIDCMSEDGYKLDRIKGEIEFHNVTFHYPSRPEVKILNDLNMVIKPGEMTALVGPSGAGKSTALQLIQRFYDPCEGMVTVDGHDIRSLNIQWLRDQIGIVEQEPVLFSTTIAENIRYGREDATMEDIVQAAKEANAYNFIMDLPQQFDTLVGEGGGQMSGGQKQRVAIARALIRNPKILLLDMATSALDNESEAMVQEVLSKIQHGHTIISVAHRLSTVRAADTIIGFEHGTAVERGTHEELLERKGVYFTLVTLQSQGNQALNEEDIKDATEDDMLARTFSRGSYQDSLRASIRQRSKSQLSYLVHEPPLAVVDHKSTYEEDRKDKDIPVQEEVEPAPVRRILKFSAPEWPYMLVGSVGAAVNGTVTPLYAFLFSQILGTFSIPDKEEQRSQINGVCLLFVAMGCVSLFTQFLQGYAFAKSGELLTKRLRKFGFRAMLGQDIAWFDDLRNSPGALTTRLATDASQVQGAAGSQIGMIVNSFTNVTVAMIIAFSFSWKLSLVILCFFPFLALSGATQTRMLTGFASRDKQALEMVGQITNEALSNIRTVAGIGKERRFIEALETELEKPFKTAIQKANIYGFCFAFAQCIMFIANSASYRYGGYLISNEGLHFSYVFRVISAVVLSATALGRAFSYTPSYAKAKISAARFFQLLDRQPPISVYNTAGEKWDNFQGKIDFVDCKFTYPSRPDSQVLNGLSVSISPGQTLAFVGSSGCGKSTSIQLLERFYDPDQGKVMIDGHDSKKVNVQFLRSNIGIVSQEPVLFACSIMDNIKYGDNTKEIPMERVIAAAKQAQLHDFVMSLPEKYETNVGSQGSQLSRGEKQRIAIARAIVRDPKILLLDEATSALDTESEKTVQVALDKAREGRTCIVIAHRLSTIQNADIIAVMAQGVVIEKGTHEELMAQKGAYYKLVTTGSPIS

H526 cells = assay: CellTiter Glo cell proliferation assay (single agent and chemotherapy combination); assay type: cell-based, human
Description: Plates returned to incubator for six additional days. On day six post dosing, plates were removed and treated with CellTiter Glo reagent following manufacturer's specifications. Plates incubated 45 minutes at room temperature and run on a Biotek luminometer with 1 sec/well detection. Results were converted to Microsoft Excel and transferred to GraphPad Prism for analysis.
Cells were plated at 250 cells per well in white wall/clear bottom plates and incubated overnight. […] Plates returned to the incubator for six additional days. On day six post dosing, plates were removed and treated with CellTiter Glo reagent following manufacturer's specifications. Plates incubated 45 minutes at room temperature and run on a Biotek luminometer with 1 sec/well detection. Results were converted to Microsoft Excel and transferred to GraphPad Prism for analysis.
(§3) Dose curves ranged from 300 pM to 10 μM in triplicate and treatments lasted for 6 days. Plates were removed from incubator at each specified timepoint and treated with CellTiter-Glo (Promega, Inc) following manufacturer specifications. Plates were then read on CLARIOstar luminometer with 1 sec/well integration.
as §3, with “integration. Results were converted to Microsoft Excel and transferred to GraphPad Prism for Analysis.” for “integration.”

[5] = Functional observational battery in 28-day repeat-dose toxicity study; assay type: in vivo, rats; details: any dose level
Source text: as §1

NS(=O)(=O)c1ccc(Nc2ncc3cc4n(c3n2)C2(CCCCC2)C(=O)NN4)cc1 [Compound I]
induction of CYP3A4 transcription (CYP3A4 transcription): no observed induction | ECGs [1]: did not affect; also recorded: within normal limits | tumor bioluminescence signal (CellTiter Glo) of Hollow Fibers [2]: significant reduction | Maximum Percent inhibition (human OATP1B3; OATP1B3, HEK293 cells): 91% | IC50 (human OATP1B3; OATP1B3, HEK293 cells, read-out: IC50): 6.22 µM | IC50 (human OATP1B3; read-out: OATP1B3 IC50): 6.22 µM | tumor bioluminescence signal (CellTiter Glo) of Hollow Fibers [3]: only observed in mice administered Compound I intraperitoneally at 75 mg/kg twice per day | BSEP inhibition [4]: did not inhibit | cellular proliferation IC50, combined with camptothecin, versus single agents (H526 cells; 100 nM Compound I with camptothecin dose curve, 6 days): comparable | IC50 (H526 cells; Homo sapiens, NCI-H526, 144 h, six days): 62 nM | inhibition compared with palbociclib (H526 cells; six days): low nanomolar concentrations | FOB results [5]: did not affect
